Values joined by “and” are separate entries in the source; they are usually repeats but may differ in a detail not shown here. Equal entries are not always repeated.
Key:
lice eggs = assay: Standard lice egg-hatching assay, commercial head lice products with rinse; type: in vivo; conditions: for H (number of eggs successfully hatched) / Ph (number of eggs partly hatched): per replicate, products per manufacturer's recommendations, 1,10-phenanthroline 10 mM, rinsed
Description: (§1) These three products were tested according to manufacturer's recommendations. Groups of eggs (24 hours old) were treated with the different products according to manufacturer's recommendations for the appropriate period of time (5-10 minutes) followed by a rinse for 1-2 minutes in 32° C. water. A positive controls (10 mM 1,10-phenanthroline) and two negative controls (no treatment and 20% Methanol) were also incorporated. Post exposure to the different products, the eggs were rinsed with warm water at 32° C. before being blotted dry on tissue paper and placed at 32° C., 70% RH and left to hatch. A second group of eggs, (48 hours old) were treated as previously described and also left to hatch. This process was repeated at 24 hour intervals on head lice eggs up to 120 hours post laying. This method of assaying inhibitors more closely mirrors the field situation where lice eggs will be at various stages of development on the head and permits the inhibitory effects to be observed on these different stages of the parasite.
as §1, with “two” for “three”, “Two” for “A positive controls (10 mM 1,10-phenanthroline) and two”, “ethanol)” for “Methanol)”, “were” for “were rinsed with warm water at 32° C. before being”

[1] = test system: Lice (L) and Plutella (P) eggs; assay: whole plant or invertebrate; conditions: read-out: Ovicidal activity %
[2] = test system: third stage H. contortus larvae; assay: Survival and L3 to L4 moulting of third stage larvae; type: in vivo, Haemonchus contortus
Description: Third stage H. contortus larvae were exposed to varying concentrations of 5,5′-dimethyl-2,2′-dipyridyl and the effects on moulting from L3 to L4 examined. The larvae were either exsheathed (their L2 sheath was removed chemically) or unexsheathed (their L2 sheaths were intact). The larvae were exposed to varying concentrations of 5,5′-dimethyl-2,2′-dipyridyl added to their culture media of DMEM and the effects on larval survival monitored over time. Following a 30 minute incubation at 37° C., greater than 90% of the exsheathed larvae exposed to 1 and 0.5 mM of the compound appeared dead. […] By day six post exposure greater than 90% of the larvae appeared to have died in the treatment groups while the control larvae appeared healthy.

body louse eggs = assay: Standard body louse egg assay with formulated compound; type: in vivo, body lice; conditions: 10 minute exposure; for % of eggs that hatched following treatment: formulated
Description: 5,5′-dimethyl-2,2′-dipyridyl was formulated and evaluated in the standard body louse egg assay. Body louse eggs (15-30 per replicate) of varying ages were exposed for 10 minute to the test solutions or a placebo or left untreated, followed by a 1 minute water wash and blotted dry. The eggs were then incubated at 30° C. over the following 10 days post treatment and the percentage of eggs that successfully hatched was determined (Table 20).

Structure (SMILES): c1cnc2c(c1)ccc1cccnc12 [1,10-phenanthroline, reference compound]
- ovicidal activity across the different stages of lice egg hatching (lice eggs; 24-120 hr post egg laying): highly effective at inhibiting lice egg hatching
- H (number of eggs successfully hatched) (lice eggs; treated 24 hr post egg laying): 0
- Ph (number of eggs partly hatched) (lice eggs; treated 24 hr post egg laying): 0
- H (number of eggs successfully hatched) (lice eggs; treated 48 hr post egg laying): 0
- Ph (number of eggs partly hatched) (lice eggs; treated 48 hr post egg laying): 0
- H (number of eggs successfully hatched) (lice eggs; treated 72 hr post egg laying): 0
- Ph (number of eggs partly hatched) (lice eggs; treated 72 hr post egg laying): 0
- H (number of eggs successfully hatched) (lice eggs; treated 96 hr post egg laying): 0
- Ph (number of eggs partly hatched) (lice eggs; treated 96 hr post egg laying): 0
- H (number of eggs successfully hatched) (lice eggs; treated 120 hr post egg laying): 0 and 4 and 1
- Ph (number of eggs partly hatched) (lice eggs; treated 120 hr post egg laying): 0
- inhibition at 10000 µM [1]: 100%

Structure (SMILES): Cc1ccc(-c2ccc(C)cn2)nc1 [5,5′-dimethyl-2,2′-dipyridyl]
- appearance of unexsheathed larvae ([2]; 10 μM, up to 6 days post exposure): larvae appeared normal
- exsheathed larvae that appeared dead ([2]; 1 and 0.5 mM in DMEM, 30 minute incubation at 37° C.): greater than 90%
- unexsheathed larvae that appeared to have died ([2]; day six post exposure, treatment groups): greater than 90%
- effects on unexsheathed larvae compared to control larvae ([2]; up to 3 days post exposure): no adverse effects were observed
- ovicidal activity of formulated compound on body louse eggs (body louse eggs; 1 minute water wash): strong dose dependency of ovicidal activity
- % of eggs that hatched following treatment (body louse eggs; 1 mM, age of eggs 24 hr): 91%
- % of eggs that hatched following treatment (body louse eggs; 1 mM, age of eggs 48 hr): 80%
- % of eggs that hatched following treatment (body louse eggs; 1 mM, age of eggs 96 hr): 82%
- % of eggs that hatched following treatment (body louse eggs; 1 mM, age of eggs 120 hr): 86%
- % of eggs that hatched following treatment (body louse eggs; 5 mM, age of eggs 24 hr): 21%
- % of eggs that hatched following treatment (body louse eggs; 5 mM, age of eggs 48 hr): 58%
- % of eggs that hatched following treatment (body louse eggs; 5 mM, age of eggs 96 hr): 64%
- % of eggs that hatched following treatment (body louse eggs; 5 mM, age of eggs 120 hr): 65%
- % of eggs that hatched following treatment (body louse eggs; 10 mM, age of eggs 24 hr): 4%
- % of eggs that hatched following treatment (body louse eggs; 10 mM, age of eggs 48 hr): 7%
- % of eggs that hatched following treatment (body louse eggs; 10 mM, age of eggs 96 hr): 10%
- % of eggs that hatched following treatment (body louse eggs; 10 mM, age of eggs 120 hr): 12%
- % of eggs that hatched following treatment (body louse eggs; 30 mM, age of eggs 24 hr): 0%
- % of eggs that hatched following treatment (body louse eggs; 30 mM, age of eggs 48 hr): 0%
- % of eggs that hatched following treatment (body louse eggs; 30 mM, age of eggs 96 hr): 0%
- % of eggs that hatched following treatment (body louse eggs; 30 mM, age of eggs 120 hr): 0%

Reference: patent US20070254907A1, “COMPOSITIONS AND METHODS FOR CONTROLLING INFESTATION” (HATCHTECH PTY LTD, priority 2003, published 2007)
